# Experimental data published in US11873291B2, “Quinoline cGAS antagonist compounds” (ImmuneSensor Therapeutics, Inc., priority 2020, dated 2024).
# Where two headings read alike, the source gives them in different places.
# Tests used:
# [1] = test system: cGAS activity in Reporter THP1 cell line; test: Cellular assay to measure cGAS activity: ISRE-Gaussia luciferase reporter THP1 cells transfected with ISD; format: cell-based; conditions: Homo sapiens
# Method: Cellular assay to measure cGAS activity: Reporter THP1 cell line harboring a gene encoding Gaussia Luciferase under the control of 5 tandem repeats of interferon-stimulated response elements (ISRE) fused to an ISG54 minimal promoter was used to test inhibition of cGAS activity by synthetic compounds in human cells. These cells were plated on 96-well plates at 0.3×10^6/well and incubated with serial dilutions of compounds or DMSO for 5 min, followed by transfection of 2 μg/mL of ISD (Interferon Stimulatory DNA, a 45 bp DNA oligo) or mock transfected using lipofectamine 2000 (Life Technology) method, according to manufacturer's instructions. 16 hours later, 15 μL of the media from each well was transferred to a new plate, 50 μL of solution containing 50 mM Hepes-NaOH, pH 6.5, 50 mM NaCl, 10 mM EDTA, 1 μM of coelenterazine was added to each well and luminescence was measured immediately. Fold increase in luminescence compared to mock transfection was plotted against concentrations of each compound, and IC50 is calculated using Graphpad. To evaluate the specificity of a compound, the same procedure was performed except that cells were transfected with 2 μg/mL poly(I:C) or infected with Sendai Virus (SeV) at 50 Unit/mL, which are known to activate the RIG-I-MAVS pathway. A specific inhibitory compound should inhibit interferon induction by DNA but have minimal effect on poly(I:C) or Sendai virus induced interferon reporter gene expression.
# The letter codes for cGAS IC50 include: A (<2 μM); B (2-10 μM); C (>10 μM).
# [2] = molecular target: T1, recombinant human cGAS (aa147-522) (Homo sapiens, UniProt Q8N884); test: In vitro inhibition assay of cGAS activity (ATP consumption, KinaseGlo Max); format: biochemical
# T1 construct: recombinant human cGAS (aa147-522); His6-SUMO (cleaved yes); made in house; host or cells: E. coli BL21/pLys
# Outline: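 IC50 came from plotting % ATP consumption against log compound concentration, with leftover ATP detected by KinaseGlo Max chemiluminescence. Reactions ran 20 min at 37 °C with 1.5 μg/mL human cGAS (aa147-522), 6.6 μM ATP, 0.1 mM GTP and 0.01 mg/mL DNA at pH 7.5.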
# [3] = Table 3, read-out: cGAS Inhibition Results IC50
# [4] = THP-1, Table 4, Gaussia luciferase
# [5] = Table 2, read-out: cGAS Inhibition Results IC50
# T1 sequence (Q8N884 147-522): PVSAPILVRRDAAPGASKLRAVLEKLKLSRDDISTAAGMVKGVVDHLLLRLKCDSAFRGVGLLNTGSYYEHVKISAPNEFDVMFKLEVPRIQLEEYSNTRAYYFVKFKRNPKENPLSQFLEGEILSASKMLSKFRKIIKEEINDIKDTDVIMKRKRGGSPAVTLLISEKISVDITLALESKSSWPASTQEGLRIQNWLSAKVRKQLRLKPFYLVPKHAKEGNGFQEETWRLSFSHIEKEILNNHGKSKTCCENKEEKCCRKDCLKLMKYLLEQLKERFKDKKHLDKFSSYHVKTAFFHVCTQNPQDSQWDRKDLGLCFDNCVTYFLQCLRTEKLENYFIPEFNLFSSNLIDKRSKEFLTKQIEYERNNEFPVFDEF
Structure (SMILES),"IC50 ([1]; THP-1, untitled table after Table 4 (continuation)) [nM]","IC50 [2, 3] [nM]","IC50 [1, 4] [nM]","IC50 [2, 5] [nM]"
"O=C(O)[C@@H]1[C@H](CO)CCN1c1cc(-n2ccnc2)c2ccc(Cl)c(Cl)c2n1 (racemic) [I-782, 1-(7,8-dichloro-4-(1H-imidazol-1-yl)quinolin-2-yl)-3-(hydroxymethyl)pyrrolidine-2-carboxylic acid]",> 10000,< 2000,–,–
COc1ccc(-c2cc(-n3ccnc3)c3ccc(Cl)cc3n2)cc1C(=O)O [I-15],–,–,> 10000,< 2000
"COc1cc(C(=O)O)cc(-c2cc(-n3ccnc3)c3ccc(Cl)cc3n2)c1 [I-24, 3-(7-chloro-4-(1H-imidazol-1-yl)quinolin-2-yl)-5-methoxybenzoic acid]",–,–,2000 to 10000,< 2000
COc1ccc(-c2cc(-n3ccnc3)c3ccc(Cl)c(Cl)c3n2)cc1C(=O)O [I-39],–,–,2000 to 10000,< 2000
O=C1CN(c2cc(-n3ccnc3)c3ccc(Cl)c(Cl)c3n2)CCCN1 [I-86],–,–,2000 to 10000,< 2000
O=C(O)C1COCCN1c1cc(-n2ccnc2)c2ccc(Cl)c(Cl)c2n1 (stereo not shown) [I-92],–,–,> 10000,< 2000
NS(=O)(=O)C1CCCN(c2cc(-n3ccnc3)c3ccc(Cl)c(Cl)c3n2)C1 (stereo not shown) [I-116],–,–,2000 to 10000,< 2000
OC[C@@H]1CCCN1c1cc(-n2ccnc2)c2ccc(Cl)c(Cl)c2n1 [I-139],–,–,2000 to 10000,< 2000
NS(=O)(=O)CC1CCN(c2cc(-n3ccnc3)c3ccc(Cl)c(Cl)c3n2)C1 (stereo not shown) [I-149],–,–,> 10000,< 2000
NS(=O)(=O)CCNc1cc(-n2ccnc2)c2ccc(Cl)c(Cl)c2n1 [I-200],–,–,< 2000,< 2000
O=C(O)[C@@H]1C[C@@H](F)CN1c1cc(-n2ccnc2)c2ccc(Cl)c(Cl)c2n1 [I-322],–,–,> 10000,< 2000
O=C(O)[C@@H]1CCCN1c1cc(-n2ccnc2)c2ccc(Cl)c(Cl)c2n1 [I-428],–,–,2000 to 10000,< 2000
O=C(O)[C@@H]1[C@H](O)CCN1c1cc(-n2ccnc2)c2ccc(Cl)c(Cl)c2n1 [I-429],–,–,> 10000,< 2000
O=C(O)[C@@H]1CCCN1c1cc(-c2cn[nH]c2)c2ccc(Cl)c(Cl)c2n1 [I-435],–,–,2000 to 10000,< 2000
O=C(O)C[C@@H]1CCCN1c1cc(-n2ccnc2)c2ccc(Cl)c(Cl)c2n1 [I-443],–,–,2000 to 10000,< 2000
NC(=O)[C@@H]1CCCN1c1cc(-n2ccnc2)c2ccc(Cl)c(Cl)c2n1 [I-448],–,–,> 10000,< 2000
O=C(O)C[C@@H]1CCN1c1cc(-n2ccnc2)c2ccc(Cl)c(Cl)c2n1 [I-461],–,< 2000,> 10000,–
Clc1ccc2c(-n3ccnc3)cc(N3CCCC3c3ncc[nH]3)nc2c1Cl (stereo not shown) [I-467],–,2000 to 30000,2000 to 10000,–
O=C(O)[C@@H]1C[C@@H]2C[C@@H]2N1c1cc(-n2ccnc2)c2ccc(Cl)c(Cl)c2n1 [I-469],–,< 2000,< 2000,–
O=C(O)[C@@H]1[C@@H]2C[C@@H]2CN1c1cc(-n2ccnc2)c2ccc(Cl)c(Cl)c2n1 [I-470],–,< 2000,2000 to 10000,–
COC(=O)[C@@H]1[C@@H]2[C@H](CN1c1cc(-n3ccnc3)c3ccc(Cl)c(Cl)c3n1)C2(C)C [I-471],–,2000 to 30000,2000 to 10000,–
CC1CCN(c2cc(-n3ccnc3)c3ccc(Cl)c(Cl)c3n2)C1C(=O)O (stereo not shown) [I-473],–,< 2000,< 2000,–
C[C@H]1C[C@@H](C(=O)O)N(c2cc(-n3ccnc3)c3ccc(Cl)c(Cl)c3n2)C1 [I-477],–,< 2000,2000 to 10000,–
O=C(O)[C@@H]1CC2(CC2)CN1c1cc(-n2ccnc2)c2ccc(Cl)c(Cl)c2n1 [I-478],–,< 2000,2000 to 10000,–
O=C(O)C1CC[C@H](c2ccccc2)N1c1cc(-n2ccnc2)c2ccc(Cl)c(Cl)c2n1 (stereo partly shown) [I-487],–,–,2000 to 10000,–

Structure (SMILES),"IC50 ([1]; THP-1, untitled table after Table 4 (continuation)) [nM]","IC50 [2, 3] [nM]","IC50 [1, 4] [nM]","IC50 [2, 5] [nM]"
C[C@H]1CC[C@@H](C(=O)O)N1c1cc(-n2ccnc2)c2ccc(Cl)c(Cl)c2n1 [I-507],–,< 2000,2000 to 10000,–
O=C(O)[C@@H]1[C@H]2CC[C@H](C2)N1c1cc(-n2ccnc2)c2ccc(Cl)c(Cl)c2n1 [I-516],–,< 2000,> 10000,–
COC(=O)[C@H]1CCCN1C(=O)C[C@@H]1CCCN1c1cc(-n2ccnc2)c2ccc(Cl)c(Cl)c2n1 [I-532],–,2000 to 30000,2000 to 10000,–
NC(=O)CNC(=O)C[C@@H]1CCCN1c1cc(-n2ccnc2)c2ccc(Cl)c(Cl)c2n1 [I-539],–,< 2000,2000 to 10000,–
O=C(OCC(F)(F)F)[C@@H]1[C@@H](O)CCN1c1cc(-n2ccnc2)c2ccc(Cl)c(Cl)c2n1 [I-556],–,< 2000,< 2000,–
COC(=O)[C@@H]1C[C@H](F)CN1c1cc(-n2ccnc2)c2ccc(Cl)c(Cl)c2n1 [I-575],–,2000 to 30000,2000 to 10000,–
COC(=O)[C@@H]1CC2C[C@@H]2N1c1cc(-n2ccnc2)c2ccc(Cl)c(Cl)c2n1 (stereo partly shown) [I-576],–,< 2000,< 2000,–
COC(=O)[C@@H]1[C@@H]2C[C@@H]2CN1c1cc(-n2ccnc2)c2ccc(Cl)c(Cl)c2n1 [I-577],–,2000 to 30000,2000 to 10000,–
COC(=O)C1C(C)CCN1c1cc(-n2ccnc2)c2ccc(Cl)c(Cl)c2n1 (stereo not shown) [I-578],–,2000 to 30000,2000 to 10000,–
COC(=O)[C@@H]1CC2(CC2)CN1c1cc(-n2ccnc2)c2ccc(Cl)c(Cl)c2n1 [I-582],–,< 2000,< 2000,–
COC(=O)[C@@H]1CC(C)(C)CN1c1cc(-n2ccnc2)c2ccc(Cl)c(Cl)c2n1 [I-583],–,2000 to 30000,< 2000,–
COC(=O)[C@@H]1C[C@@H](C)CN1c1cc(-n2ccnc2)c2ccc(Cl)c(Cl)c2n1 [I-585],–,2000 to 30000,< 2000,–
COC(=O)[C@@H]1C[C@H](C)CN1c1cc(-n2ccnc2)c2ccc(Cl)c(Cl)c2n1 [I-586],–,2000 to 30000,< 2000,–
COC(=O)[C@@H]1C[C@H]2C[C@H]2N1c1cc(-n2ccnc2)c2ccc(Cl)c(Cl)c2n1 [I-591],–,2000 to 30000,2000 to 10000,–
COC(=O)[C@@H]1C[C@@H](F)CN1c1cc(-n2ccnc2)c2ccc(Cl)c(Cl)c2n1 [I-592],–,2000 to 30000,2000 to 10000,–
COC(=O)[C@@H]1CCCN1c1cc(-n2ccnc2)c2ccc(Cl)c(Cl)c2n1 [I-593],–,2000 to 30000,2000 to 10000,–
CCOC(=O)[C@@H]1CCCN1c1cc(-n2ccnc2)c2ccc(Cl)c(Cl)c2n1 [I-594],–,2000 to 30000,2000 to 10000,–
CC(C)OC(=O)[C@@H]1CCCN1c1cc(-n2ccnc2)c2ccc(Cl)c(Cl)c2n1 [I-595],–,2000 to 30000,2000 to 10000,–
COC(=O)[C@@H]1[C@@H](O)CCN1c1cc(-n2ccnc2)c2ccc(Cl)c(Cl)c2n1 [I-596],–,2000 to 30000,< 2000,–
COC(=O)[C@@H]1[C@H](O)CCN1c1cc(-n2ccnc2)c2ccc(Cl)c(Cl)c2n1 [I-597],–,2000 to 30000,> 10000,–
COC(=O)[C@@H]1[C@@H](O)CCN1c1cc(-c2cn[nH]c2)c2ccc(Cl)c(Cl)c2n1 [I-598],–,2000 to 30000,< 2000,–
CCOC(=O)[C@@H]1[C@@H](O)CCN1c1cc(-n2ccnc2)c2ccc(Cl)c(Cl)c2n1 [I-599],–,2000 to 30000,< 2000,–
CC(C)OC(=O)[C@@H]1[C@@H](O)CCN1c1cc(-n2ccnc2)c2ccc(Cl)c(Cl)c2n1 [I-600],–,2000 to 30000,< 2000,–
CCCCOC(=O)[C@@H]1[C@@H](O)CCN1c1cc(-n2ccnc2)c2ccc(Cl)c(Cl)c2n1 [I-601],–,2000 to 30000,< 2000,–
